Data on 20 compounds can be found in PubChem BioAssay (NCI).

Molecules are shown by their SMILES. “And” between values parts separate entries of the source, which are not always exact repeats. Equal values may be shown once.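 Five concentrations, 48 hours, 96-well plates. GI50 = concentration required for 50% inhibition of growth. Definition used: TGI = concentration required for complete inhibition of growth.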 Bounds are passed on as bounds.

Test systems include SK-MEL-2 melanoma; U251 CNS; UACC-257 melanoma; EKVX NSCLC; NCI-H23 lung; RXF 393 renal; SK-MEL-5 melanoma; MALME-3M melanoma; HT29 colon; HCT-15 colon; HOP-92 NSCLC; BT-549 breast.
Common to all, as to test: growth of human tumour cells (NCI), 48 h

As to `CCC(c1ccc(OC)cc1)C1NC(=S)NC1=O` (stereo not drawn), the TGI in the assay with SK-MEL-2 melanoma, in the assay with U251 CNS, with UACC-257 melanoma, in the assay with EKVX NSCLC, in the assay on NCI-H23 lung and in the assay with RXF 393 renal was over 50 µM in each case. In addition, the TGI in the assay on SK-MEL-5 melanoma, in the assay with MALME-3M melanoma, in the assay on HT29 colon, in the assay with HCT-15 colon and in the assay on HOP-92 NSCLC was over 50 µM throughout.
`COc1ccc(NS(=O)c2c(C)cc(C)cc2C)cc1` (stereo not drawn): the TGI in the assay with SK-MEL-2 melanoma, with U251 CNS, in the assay with BT-549 breast, with UACC-257 melanoma, with EKVX NSCLC and in the assay with NCI-H23 lung was over 100 µM throughout. Besides, the TGI was 92.1 µM with SK-MEL-5 melanoma, 49 µM in the assay on MALME-3M melanoma, over 100 µM with HT29 colon and over 100 µM in the assay on HCT-15 colon.
In the case of `CC1(C)SCc2nc3ccccc3n21`, the TGI in the assay with SK-MEL-2 melanoma, in the assay on U251 CNS, in the assay with UACC-257 melanoma, with EKVX NSCLC, in the assay on NCI-H23 lung and with RXF 393 renal was over 100 µM each time. The TGI in the assay on SK-MEL-5 melanoma, in the assay with MALME-3M melanoma, with HT29 colon, in the assay on HCT-15 colon and with HOP-92 NSCLC was over 100 µM in each case.
On to `CO[C@H]1O[C@@H]2OC3(C)CCC4[C@H](C)CCC([C@H]1C)[C@]42OO3` (stereo partly drawn), for which the TGI in the assay with SK-MEL-2 melanoma, with U251 CNS, in the assay on UACC-257 melanoma, in the assay with EKVX NSCLC, in the assay with NCI-H23 lung and in the assay on RXF 393 renal was over 100 µM each time. For the same compound, the TGI with SK-MEL-5 melanoma, with MALME-3M melanoma, in the assay with HT29 colon, in the assay on HCT-15 colon and in the assay on HOP-92 NSCLC was over 100 µM each time.
With `CCCNCC(O)CNc1ccc(NCC(O)CNCCC)c2c1C(=O)c1ccccc1C2=O` (stereo not drawn), the TGI in the assay on SK-MEL-2 melanoma is 5.22 µM; with U251 CNS it was 9.02 µM; with BT-549 breast it was 6.99 µM; in the assay with UACC-257 melanoma, 17.6 µM; in the assay on EKVX NSCLC, 20.1 µM; in the assay with NCI-H23 lung, 12.2 µM. Also, the TGI came out at 9.76 µM in the assay on SK-MEL-5 melanoma; 11.3 µM in the assay on MALME-3M melanoma; 7.69 µM with HT29 colon; 75 µM in the assay on HCT-15 colon; 6.81 µM in the assay on HOP-92 NSCLC.
Take `CN1C(=O)CN2C(Cl)(Cl)C2(c2ccccc2)c2cc(Cl)ccc21` (stereo not drawn): the TGI in the assay on SK-MEL-2 melanoma, with U251 CNS, in the assay with UACC-257 melanoma, in the assay on EKVX NSCLC, with NCI-H23 lung and with RXF 393 renal was over 100 µM throughout. The TGI in the assay on SK-MEL-5 melanoma was over 100 µM; in the assay with MALME-3M melanoma, over 100 µM; in the assay on HT29 colon, over 100 µM; with HCT-15 colon it was over 100 µM; in the assay with HOP-92 NSCLC it was 88.2 µM.
For the compound `NCCCn1c2c(c3ccc([N+](=O)[O-])cc3c1=O)C(=O)c1cc(F)ccc1-2`, the GI50 is 0.326 µM with SK-MEL-2 melanoma; 0.0603 µM in the assay on SK-MEL-5 melanoma; 0.0275 µM with MALME-3M melanoma; under 0.0153 µM with HT29 colon; 0.0595 µM in the assay with HCT-15 colon; 0.0902 µM in the assay with HOP-92 NSCLC. Besides, the TGI was found to be 1.05 µM with SK-MEL-2 melanoma; 0.199 µM in the assay with SK-MEL-5 melanoma; 0.161 µM with MALME-3M melanoma; 0.515 µM with HT29 colon; 0.647 µM in the assay on HCT-15 colon; 0.845 µM with HOP-92 NSCLC.
As for `CN1c2ccccc2C(=O)NC12CCNCC2`, the TGI in the assay with U251 CNS, in the assay on UACC-257 melanoma, with EKVX NSCLC, in the assay with NCI-H23 lung, with RXF 393 renal and with SK-MEL-5 melanoma was over 100 µM throughout. Moreover, the TGI in the assay with MALME-3M melanoma, in the assay with HT29 colon and in the assay on HOP-92 NSCLC was over 100 µM throughout.
As for `CC(C)COP(C)(=O)C(N)(C(F)(F)F)C(F)(F)F` (stereo not drawn), the TGI with SK-MEL-2 melanoma, with U251 CNS, in the assay on UACC-257 melanoma, in the assay with EKVX NSCLC, with NCI-H23 lung and with SK-MEL-5 melanoma was over 100 µM each time. Further, the TGI with MALME-3M melanoma, in the assay with HT29 colon, with HCT-15 colon and with HOP-92 NSCLC was over 100 µM in each case.
Turning to `C/C(=N\O)C1CC2C=C(C#N)C1N(Cc1ccccc1)C2` (stereo not drawn), the TGI in the assay with U251 CNS, in the assay with UACC-257 melanoma, with EKVX NSCLC, in the assay with NCI-H23 lung, in the assay with RXF 393 renal and with SK-MEL-5 melanoma was over 100 µM throughout. In addition, the TGI with MALME-3M melanoma, in the assay with HT29 colon, in the assay on HCT-15 colon and with HOP-92 NSCLC was over 100 µM throughout.
For the compound `CN1C(C)(C)CC(=O)C(Br)C1(C)C` (stereo not drawn), the TGI in the assay on SK-MEL-2 melanoma, in the assay on U251 CNS, in the assay on BT-549 breast, in the assay on UACC-257 melanoma, in the assay with EKVX NSCLC and in the assay with NCI-H23 lung was over 100 µM in each case. The TGI with SK-MEL-5 melanoma, with MALME-3M melanoma, with HT29 colon, in the assay with HCT-15 colon and in the assay with HOP-92 NSCLC was over 100 µM throughout.
Regarding `C=C1CC(C)(COc2cc(=O)oc3ccccc23)OC1=O` (stereo not drawn), the TGI in the assay on SK-MEL-2 melanoma was 11.8 µM; in the assay with U251 CNS it was 28.9 µM; in the assay on BT-549 breast it was 7.89 µM; in the assay with UACC-257 melanoma it was 6.1 µM; with EKVX NSCLC, 29.4 µM; in the assay on NCI-H23 lung it was 11.4 µM. Moreover, the TGI in the assay on SK-MEL-5 melanoma is 14.7 µM; in the assay on MALME-3M melanoma it was 6.6 µM; in the assay on HT29 colon it was 13.3 µM; in the assay with HCT-15 colon it was 13 µM; in the assay on HOP-92 NSCLC, 3.54 µM.
On to `Cc1ccc(SCC(CF)OC(C)n2cnc3c(Cl)nc(N)nc32)cc1` (stereo not drawn), for which the TGI was over 100 µM in the assay with SK-MEL-2 melanoma; over 100 µM with U251 CNS; over 100 µM with BT-549 breast; over 100 µM with UACC-257 melanoma; over 100 µM with NCI-H23 lung; 53.7 µM with SK-MEL-5 melanoma. In addition, the TGI with MALME-3M melanoma, in the assay with HT29 colon, with HCT-15 colon and with HOP-92 NSCLC was over 100 µM throughout.
Take `COc1ccc2c(c1)-c1nc(=O)n(CCCN(C)C)c3ccc([N+](=O)[O-])c(c13)N2`: the TGI came out at 27.6 µM in the assay on SK-MEL-2 melanoma; 9.03 µM in the assay on U251 CNS; 16.8 µM in the assay with BT-549 breast; 6.85 µM in the assay with UACC-257 melanoma; 6.45 µM in the assay with EKVX NSCLC; 4.5 µM with NCI-H23 lung. Moreover, the TGI in the assay with SK-MEL-5 melanoma turned out to be 4.4 µM; in the assay with MALME-3M melanoma, 3.28 µM; with HT29 colon, 12.2 µM; with HCT-15 colon, 8.55 µM; in the assay with HOP-92 NSCLC, 8.53 µM.
Turning to `Oc1c(Cl)c(Cl)c(O)c(CCNc2nccs2)c1Cl`, the TGI was 48.4 µM in the assay on SK-MEL-2 melanoma; 66.1 µM with U251 CNS; 58.7 µM in the assay with UACC-257 melanoma; 41.1 µM in the assay on EKVX NSCLC; 37.9 µM in the assay on NCI-H23 lung; 20.3 µM in the assay on RXF 393 renal. Moreover, the TGI is 8.71 µM with SK-MEL-5 melanoma; 54.9 µM in the assay on MALME-3M melanoma; 51.8 µM with HT29 colon; 31 µM in the assay on HCT-15 colon; over 100 µM with HOP-92 NSCLC.
Take `[N-]=[N+]=CC(=O)OCC1NC(=O)C(COC(=O)C=[N+]=[N-])NC1=O` (stereo not drawn): the TGI in the assay with SK-MEL-2 melanoma, in the assay on U251 CNS, with UACC-257 melanoma, in the assay with EKVX NSCLC, in the assay with NCI-H23 lung and with RXF 393 renal was over 100 µM in each case. The TGI in the assay with MALME-3M melanoma, in the assay on HT29 colon, with HCT-15 colon and in the assay with HOP-92 NSCLC was over 100 µM throughout. Also, the GI50 with RXF 393 renal was 15.8 µM and > 100 µM.
Take `CCCCCCCCCC/C=C/C=O`: the TGI with SK-MEL-2 melanoma, in the assay with U251 CNS, in the assay on UACC-257 melanoma, in the assay with EKVX NSCLC, with NCI-H23 lung and in the assay on RXF 393 renal was over 100 µM in each case. The TGI with SK-MEL-5 melanoma, with MALME-3M melanoma, in the assay with HT29 colon, with HCT-15 colon and in the assay with HOP-92 NSCLC was over 100 µM in each case.
`C=CC(=O)NCNC(=O)C=C`: the TGI in the assay on SK-MEL-2 melanoma, in the assay with U251 CNS, with UACC-257 melanoma, in the assay with EKVX NSCLC, in the assay with NCI-H23 lung and in the assay on SK-MEL-5 melanoma was over 100 µM in each case. For the same compound, the TGI with MALME-3M melanoma, in the assay on HT29 colon, in the assay with HCT-15 colon and in the assay on HOP-92 NSCLC was over 100 µM each time.
Consider `O=[N+]([O-])c1ccc(CN=C2NNS(=O)(=O)c3ccccc32)cc1`, for which the TGI in the assay on SK-MEL-2 melanoma, in the assay on U251 CNS, in the assay with UACC-257 melanoma, with EKVX NSCLC, with RXF 393 renal and in the assay with SK-MEL-5 melanoma was over 100 µM in each case. The TGI in the assay on MALME-3M melanoma, in the assay on HT29 colon, in the assay on HCT-15 colon and in the assay with HOP-92 NSCLC was over 100 µM throughout.
Turning to `CC(C)OC(=O)NNc1cccc(Cl)c1`, the TGI in the assay on SK-MEL-2 melanoma, in the assay on U251 CNS, in the assay with UACC-257 melanoma, in the assay with EKVX NSCLC, in the assay on NCI-H23 lung and with RXF 393 renal was over 100 µM each time. The TGI with SK-MEL-5 melanoma, in the assay with MALME-3M melanoma, in the assay with HT29 colon, in the assay on HCT-15 colon and in the assay on HOP-92 NSCLC was over 100 µM each time.
